This passage reports IC50 results from patent US6596878B2, “Methods and compositions for inhibiting cell proliferative disorders” (Yissum Research & Development Company of the Hebrew …, priority 1994, dated 2003).

Type in all cases: cell-based
Test [1] deals with T1, PDGFR-β (Homo sapiens, UniProt P09619).
T1 construct: the human glioblastoma line U1242 that expresses PDGFR-β; endogenous in cells; host or cells: U1242 human glioblastoma cells
Description: PDGFR-β cellular kinase assay (U1242 cells). The note with it: Table V, read-out: Estimated IC50 Cellular Kinase Assays PDGFR-β. The source says:
(§1) This example illustrates the ability of the exemplary compounds to inhibit receptor tyrosine kinases, such as HER2 and/or EGFR. The following target cells were used for cellular kinaseassays: NIH3T3 clone C7 (Honegger et al., supra) engineered to over-express human EGF receptor; NIH3T3 cells engineered to over-express a chimeric receptor containing the EGFR extracellular domain and the HER2 intracellular kinase domain; the human mammary carcinoma line BT474 (ATCC HTB2) expressing HER2; and the human glioblastoma line U1242 that expresses PDGFR-β. Growth assays were carried out using human mammary epithelial SKBR3 (ATCC HTB30) cells, SKOV3 (ATCC HTB77) human ovarian cancer cell line, A431 cells, MCF7 human breast carcinoma cells, MCF7 cells overexpress the HER2 kinase (MCF7-HER2), NIH3T3 cells, and NIH3T3 cells overexpressing the HER2 kinase (3T3-HER2).

The test system of test [2] is SKBR3 cells. The experiment in a line: SKBR3 growth assay (sulphorhodamine B). The following applies: Homo sapiens, SK-BR-3, 96 h; Table V; 4 days, SRB; read-out: Estimated IC50 Growth Assays SKBR3 cells.
Source text: as §1
SKBR3 cells over-express HER2. A431 cells over-express EGFR. These cells were dispensed into 96-well plates with test compounds. After 4 days the monolayers were TCA-fixed then stained with sulphorhodamine B. The absorbance versus log drug concentration was plotted and IC50 values estimated.
(4) Tris, crystallized free base—Fisher Catalog #BP152 Working solution: 10 mM tris=1.211 gram Trizma base/liter H2O.
(5) Aspirate growth media from 96 well plate containing control cells or cell treated with compounds, rinse wells 2 or 3 times with PBS and layer 200 μl cold 10% TCA onto each well. Fix cells for 60 minutes at 4° C.
(6) Discard TCA and rinse wells 5 times with distilled H2O. Dry plate upside down on paper towel.
(7) Stain fixed cells for 10 minutes with 100 μl 0.4% SRB per well.
(8) Pour off SRB solution and rinse wells 5 times with 1% acetic acid.
(9) Dry plate upside down on paper towel.
(10) After wells are completely dry, solubilize dye with 100 μl 10 mM Tris base per well for 5-10 minutes on titer plate shaker.
(11) Read optical density at dual wavelength mode 570 nm and 630 nm on Dynatech ELISA plate reader, Model MR 5000.

The test system of test [3] is SKOV3 cells. The experiment in a line: SKOV3 soft agar colony growth assay. The note with it: Homo sapiens, SK-OV-3, 336 h, Table V, colony growth 2 weeks, read-out: Estimated IC50 Growth Assays SKOV3 cells.
Source text: as §1
SKOV3 cells also over-express HER2. These cells were plated into soft agar with a test compound and colony growth was quantified 2 weeks. later using an Omnicon colony counter.
6. Soft Agar Assay Protocol
The soft agar assay is well known in the art as a method for measuring the effects of substances on cell growth. Unless otherwise stated the soft agar assays were carried out as follows:
(1) A Water bath set at 39° C. and another water bath at 37° C.
(2) 2×assay medium is comprised of 2×Dulbecco's Modified Eagle's Medium (DMEM) (Gibco Cat. #CA400-4ANO3) supplemented by the following:
20% Fetal Bovine Serum (FBS)
Non-essential Amino Acids (1:50 from 100×stock)
(3) 1×assay medium made of 1×DMEM supplemented with 10% FBS, 1 mM sodium pyruvate, 2 mM glutamine, 10 mM HEPES, non-essential amino acid (1:100 from 100×stock).
(4) 1.6% SeaPlaque Agarose in autoclave bottle
(5) Sterile 35 mm Corning plates (FMC Bioproducts Cat. #50102)
(6) Sterile 5 ml glass pipets (individually wrapped)
(7) Sterile 15 ml and 50 ml conical centrifuge tubes
(8) Pipets and sterile tips
(9) Sterile microcentrifuge tubes
(10) Cells in T75 flasks: SKOV-3 (ACTT HTB77).
(12) Procedure for making the base layer:
(a) Have all the media warmed up in the 37° C. water bath.
(b) To make 1×of assay medium+0.8% agar: make a 1:2 (vol:vol) dilution of melted agar (cooled to 39° C.), with 2×assay medium.
(c) Keep all media with agar warm in the 39° C. water bath when not in use.
(d) Dispense 1 ml of 1×assay medium+0.8% agar into dishes and gently swirl plate to form a uniform base layer. Bubbles should be avoided.
(e) Refrigerate base layers to solidify (about 20 minutes). Base layers can be stored overnight in the refrigerator.
(13) Procedure for collecting cells:
(a) Take out one flask per cell line from the incubator; aspirate off medium; wash once with PBS and aspirate off; add 3 ml of trypsin solution. […]
(d) Colonies that are 60 microns and larger are scored positive.

T1 sequence (P09619 33-1106): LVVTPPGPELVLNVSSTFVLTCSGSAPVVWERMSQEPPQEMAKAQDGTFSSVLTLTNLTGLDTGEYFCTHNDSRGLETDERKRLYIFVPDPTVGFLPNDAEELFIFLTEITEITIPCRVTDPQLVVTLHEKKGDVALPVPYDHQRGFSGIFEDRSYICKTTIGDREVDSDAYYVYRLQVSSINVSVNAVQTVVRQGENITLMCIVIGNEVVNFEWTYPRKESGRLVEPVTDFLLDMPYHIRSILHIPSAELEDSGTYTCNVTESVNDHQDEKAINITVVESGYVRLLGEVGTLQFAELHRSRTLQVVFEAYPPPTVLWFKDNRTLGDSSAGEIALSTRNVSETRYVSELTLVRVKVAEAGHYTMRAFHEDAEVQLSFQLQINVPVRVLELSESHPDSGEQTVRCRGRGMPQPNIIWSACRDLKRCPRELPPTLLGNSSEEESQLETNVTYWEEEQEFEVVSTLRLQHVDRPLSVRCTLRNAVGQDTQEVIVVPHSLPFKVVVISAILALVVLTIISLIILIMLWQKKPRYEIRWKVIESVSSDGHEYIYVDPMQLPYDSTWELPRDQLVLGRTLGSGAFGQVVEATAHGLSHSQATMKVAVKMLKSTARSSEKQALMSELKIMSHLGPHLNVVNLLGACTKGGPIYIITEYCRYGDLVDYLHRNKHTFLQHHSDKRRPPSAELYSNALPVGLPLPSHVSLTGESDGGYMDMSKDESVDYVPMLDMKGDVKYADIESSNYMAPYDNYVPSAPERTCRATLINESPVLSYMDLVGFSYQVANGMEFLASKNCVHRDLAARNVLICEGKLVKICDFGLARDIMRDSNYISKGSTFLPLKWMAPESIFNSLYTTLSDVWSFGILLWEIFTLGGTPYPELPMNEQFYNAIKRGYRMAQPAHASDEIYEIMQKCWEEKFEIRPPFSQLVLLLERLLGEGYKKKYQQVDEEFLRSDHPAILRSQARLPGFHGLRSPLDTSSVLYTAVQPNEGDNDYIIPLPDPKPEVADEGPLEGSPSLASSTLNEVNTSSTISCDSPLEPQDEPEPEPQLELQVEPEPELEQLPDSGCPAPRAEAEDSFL

Usually IC50 stands for the concentration at which inhibition is half-maximal. `CC(C)(C)c1cc(/C=C(\C#N)C(N)=S)cc(C(C)(C)C)c1O` [Compound M11]: the IC50 is more than 100 µM in test [1], 4 µM in test [2] and 0.5 µM in test [3].

`N#C/C(=C\c1ccc(O)c(O)c1)C(=S)NCc1ccccc1` [Compound M13]: the 50% inhibitory concentration (IC50) is 60 µM in test [1], 25 µM in test [2] and 20 µM in test [3].

Consider `N#C/C(=C\c1ccc(O)c(O)c1)C(=O)Nc1cccc(C(F)(F)F)c1` [Compound M15], for which the half-inhibitory concentration (IC50) in test [2] was 20 µM; in test [3], 17 µM.

Take `N#C/C(=C\c1cc(O)c(O)c(I)c1)C(=O)NCCCc1ccccc1` [Compound M16]: the IC50 is 35 µM in test [1], 9 µM in test [2] and 4.5 µM in test [3].
